According to the NIST ThermoML archive (doi:10.1021/je060032n):

Assays:
[1] = xn = mol fraction of the nth substance listed; conditions: 101 kPa, Liquid, x2 = 0; for viscosity: Capillary tube (Ostwald / Ubbelohde) method
[2] = refractive index (Na D-line) (dimensionless); xn = mol fraction of the nth substance listed; conditions: 101 kPa, Liquid, Standard Abbe refractometry, x2 = 0
[3] = 101 kPa, Liquid; for viscosity: Capillary tube (Ostwald / Ubbelohde) method
[4] = refractive index (Na D-line) (dimensionless); conditions: 101.33 kPa, Liquid, Standard Abbe refractometry

O [water] + NCCNCCO
Conditions	mass density, [1] [kg/m3]	refractive index, [2]	viscosity, [1] [mPa·s]
298.15 K	–	1.33258	0.882
303.15 K	–	1.33202	0.804
313.15 K	–	1.33067	0.659
323.15 K	988.03	1.32909	0.551
333.15 K	983.19	1.3273	0.47
343.15 K	977.75	–	0.407

NCCNCCO [N-(2-aminoethyl)ethanolamine]
Conditions	mass density, [3] [kg/m3]	refractive index, [4]	viscosity, [3] [mPa·s]
298.15 K	1025.28	1.48454	98.6
303.15 K	1021.53	1.48269	70.5
313.15 K	1014.02	1.47884	39.4
323.15 K	1006.44	1.47516	23.4
333.15 K	998.83	1.47128	14.8
343.15 K	991.15	–	10.1
